Values of other authors in patent US11510960B2, “Biofilm disrupting composition for use on chronic wounds” (Whiteley Corporation Pty Ltd, priority 2016, dated 2022).

Test system: P. aeruginosa biofilm from venous leg ulcers

## gentamicin
Biofilm 24 hours post-debridement, antibiotic treatment
  reduction in concentration in relation to the control biofilm: nine-fold
Mature (pre-study) biofilm, three patients with non-healing venous leg ulcers
  average log reduction in bacteria after antibiotic treatment: 4 log
